Source: ChEMBL document CHEMBL1759880, “A facile, one-pot synthesis, characterization and antimicrobial activity of o-hydroxy anilide derivatives and 1-substituted-1,3-dicyclohexylurea analogs of long chain carboxylic acids” (2011)
≈ marks a conversion by molar mass, not a printed value.

Assays:
Staphylococcus aureus [1] = assay: Antibacterial activity against Staphylococcus aureus ATCC 25923 after 24 hrs by broth dilution technique; format: functional; settings: ATCC-25923, 24 h
Escherichia coli [2] = assay: Antibacterial activity against Escherichia coli ATCC 25922 after 24 hrs by broth dilution technique; format: functional; settings: ATCC-25922, 24 h
Escherichia coli [3] = assay: Antibacterial activity against Escherichia coli ATCC 25922 after 24 hrs by disc diffusion method; format: functional
Klebsiella pneumoniae [4] = assay: Antibacterial activity against Klebsiella pneumoniae clinical isolate after 24 hrs by disc diffusion method; format: functional
Streptococcus pyogenes [5] = assay: Antibacterial activity against Streptococcus pyogenes clinical isolate after 24 hrs by broth dilution technique; format: functional
Klebsiella pneumoniae [6] = assay: Antibacterial activity against Klebsiella pneumoniae clinical isolate after 24 hrs by broth dilution technique; format: functional
Streptococcus pyogenes [7] = assay: Antibacterial activity against Streptococcus pyogenes clinical isolate after 24 hrs by disc diffusion method; format: functional
Staphylococcus aureus [8] = assay: Antibacterial activity against Staphylococcus aureus ATCC 25923 after 24 hrs by disc diffusion method; format: functional
Candida albicans [9] = assay: Antifungal activity against Candida albicans after 3 to 4 days by disc diffusion method; format: functional
Aspergillus fumigatus [10] = assay: Antifungal activity against Aspergillus fumigatus after 3 to 4 days by disc diffusion method; format: functional
Talaromyces marneffei [11] = assay: Antifungal activity against Penicillium marneffei after 3 to 4 days by disc diffusion method; format: functional
[12] = test system: Trichophyton mentagrophytes; assay: Antifungal activity against Trichophyton mentagrophytes after 3 to 4 days by disc diffusion method; format: functional
Candida albicans [13] = assay: Antifungal activity against Candida albicans after 48 hrs by broth dilution technique; format: functional
Aspergillus fumigatus [14] = assay: Antifungal activity against Aspergillus fumigatus after 48 hrs by broth dilution technique; format: functional
Talaromyces marneffei [15] = assay: Antifungal activity against Penicillium marneffei after 48 hrs by broth dilution technique; format: functional
[16] = test system: Trichophyton mentagrophytes; assay: Antifungal activity against Trichophyton mentagrophytes after 48 hrs by broth dilution technique; format: functional
Pseudomonas aeruginosa [17] = assay: Antibacterial activity against Pseudomonas aeruginosa ATCC 27853 after 24 hrs by disc diffusion method
Pseudomonas aeruginosa [18] = assay: Antibacterial activity against Pseudomonas aeruginosa ATCC 27853 after 24 hrs by broth dilution technique; settings: ATCC-27853, 24 h

SMILES	MIC (Staphylococcus aureus [1]) [µg/mL]	MBC (Escherichia coli [2]) [µg/mL]	MIC (Escherichia coli [2]) [µg/mL]	diameter of the inhibition zone (DIZ) (Escherichia coli [3]) [mm]	diameter of the inhibition zone (DIZ) (Klebsiella pneumoniae [4]) [mm]	diameter of the inhibition zone (DIZ) (Streptococcus pyogenes [7]) [mm]	diameter of the inhibition zone (DIZ) (Staphylococcus aureus [8]) [mm]	diameter of the inhibition zone (DIZ) (Candida albicans [9]) [mm]	diameter of the inhibition zone (DIZ) (Aspergillus fumigatus [10]) [mm]	diameter of the inhibition zone (DIZ) (Talaromyces marneffei [11]) [mm]	diameter of the inhibition zone (DIZ) [12] [mm]	MFC (Candida albicans [13]) [µg/mL]	MIC (Candida albicans [13]) [µg/mL]	MFC (Aspergillus fumigatus [14]) [µg/mL]	MIC (Aspergillus fumigatus [14]) [µg/mL]	MFC [16] [µg/mL]	MIC [16] [µg/mL]	diameter of the inhibition zone (DIZ) (Pseudomonas aeruginosa [17]) [mm]	MBC (Pseudomonas aeruginosa [18]) [µg/mL]	MIC (Pseudomonas aeruginosa [18]) [µg/mL]	further results
CCCCCCCCCCCCCCCCCC(=O)Nc1ccccc1O	100 (≈ 266 µM)	100 (≈ 266 µM)	100 (≈ 266 µM)	12.4	11.4	10.8	10.5	14.7	12.4	10.2	10.5	25 (≈ 66.6 µM)	12.5 (≈ 33.3 µM)	50 (≈ 133 µM)	25 (≈ 66.6 µM)	100 (≈ 266 µM)	50 (≈ 133 µM)	11.9	100 (≈ 266 µM)	100 (≈ 266 µM)	MBC (Staphylococcus aureus [1]): 100 µg/mL (≈ 266 µM); MBC (Streptococcus pyogenes [5]): 100 µg/mL (≈ 266 µM); MIC (Streptococcus pyogenes [5]): 50 µg/mL (≈ 133 µM); MBC (Klebsiella pneumoniae [6]): 100 µg/mL (≈ 266 µM); MIC (Klebsiella pneumoniae [6]): 50 µg/mL (≈ 133 µM); MFC (Talaromyces marneffei [15]): 100 µg/mL (≈ 266 µM); MIC (Talaromyces marneffei [15]): 50 µg/mL (≈ 133 µM)
CCCCCC[C@@H](O)C/C=C\CCCCCCCC(=O)Nc1ccccc1O	50 (≈ 128 µM)	100 (≈ 257 µM)	25 (≈ 64.2 µM)	17.7	14.7	16.1	15.6	16.2	12.8	10.1	10.5	50 (≈ 128 µM)	25 (≈ 64.2 µM)	100 (≈ 257 µM)	50 (≈ 128 µM)	100 (≈ 257 µM)	50 (≈ 128 µM)	15.2	100 (≈ 257 µM)	25 (≈ 64.2 µM)	MBC (Staphylococcus aureus [1]): 100 µg/mL (≈ 257 µM); MBC (Streptococcus pyogenes [5]): 100 µg/mL (≈ 257 µM); MIC (Streptococcus pyogenes [5]): 50 µg/mL (≈ 128 µM); MFC (Talaromyces marneffei [15]): 100 µg/mL (≈ 257 µM); MIC (Talaromyces marneffei [15]): 50 µg/mL (≈ 128 µM)
C=CCCCCCCCCC(=O)N(C(=O)NC1CCCCC1)C1CCCCC1	–	100 (≈ 256 µM)	100 (≈ 256 µM)	10.6	–	–	–	12.1	–	–	–	100 (≈ 256 µM)	50 (≈ 128 µM)	–	–	–	–	12.1	100 (≈ 256 µM)	50 (≈ 128 µM)	–
CCCCC/C=C\CC[C@H](O)CCCCCCCC(=O)Nc1ccccc1O	25 (≈ 64.2 µM)	50 (≈ 128 µM)	25 (≈ 64.2 µM)	20.9	17.8	19.2	18.7	21.4	18.3	10.7	15.2	25 (≈ 64.2 µM)	12.5 (≈ 32.1 µM)	50 (≈ 128 µM)	25 (≈ 64.2 µM)	50 (≈ 128 µM)	25 (≈ 64.2 µM)	23.4	25 (≈ 64.2 µM)	25 (≈ 64.2 µM)	MBC (Staphylococcus aureus [1]): 50 µg/mL (≈ 128 µM); MBC (Streptococcus pyogenes [5]): 100 µg/mL (≈ 257 µM); MIC (Streptococcus pyogenes [5]): 50 µg/mL (≈ 128 µM); MBC (Klebsiella pneumoniae [6]): 50 µg/mL (≈ 128 µM); MIC (Klebsiella pneumoniae [6]): 25 µg/mL (≈ 64.2 µM); MFC (Talaromyces marneffei [15]): 100 µg/mL (≈ 257 µM); MIC (Talaromyces marneffei [15]): 25 µg/mL (≈ 64.2 µM)
COC1=CC(=O)C[C@@H](C)[C@]12Oc1c(Cl)c(OC)cc(OC)c1C2=O [GRISEOFULVIN]	–	–	–	–	–	–	–	30	27	20	24	12.5 (≈ 35.4 µM)	6.25 (≈ 17.7 µM)	12.5 (≈ 35.4 µM)	6.25 (≈ 17.7 µM)	12.5 (≈ 35.4 µM)	6.25 (≈ 17.7 µM)	–	–	–	MFC (Talaromyces marneffei [15]): 12.5 µg/mL (≈ 35.4 µM); MIC (Talaromyces marneffei [15]): 6.25 µg/mL (≈ 17.7 µM)
CCCCCCCC/C=C\CCCCCCCC(=O)N(C(=O)NC1CCCCC1)C1CCCCC1	–	100 (≈ 205 µM)	100 (≈ 205 µM)	15.4	12.8	13.5	13.4	13.9	9.9	–	–	100 (≈ 205 µM)	50 (≈ 102 µM)	100 (≈ 205 µM)	50 (≈ 102 µM)	–	–	17.2	100 (≈ 205 µM)	100 (≈ 205 µM)	–
O=C(O)c1cn(C2CC2)c2cc(N3CCNCC3)c(F)cc2c1=O [CIPROFLOXACIN]	–	–	–	–	–	–	22	–	–	–	–	–	–	–	–	–	–	32	–	6.5 (≈ 19.6 µM)	–
C=CCCCCCCCCC(=O)Nc1ccccc1O	100 (≈ 363 µM)	–	–	12.7	–	11.1	10.9	12.5	9.2	8.9	8.3	100 (≈ 363 µM)	50 (≈ 182 µM)	–	–	–	–	14.3	–	–	MBC (Klebsiella pneumoniae [6]): 100 µg/mL (≈ 363 µM); MIC (Klebsiella pneumoniae [6]): 100 µg/mL (≈ 363 µM)
CCCCCC[C@@H](O)C/C=C\CCCCCCCC(=O)N(C(=O)NC1CCCCC1)C1CCCCC1	50 (≈ 99 µM)	100 (≈ 198 µM)	50 (≈ 99 µM)	20.7	17.5	19.1	18.5	18.3	14.9	–	13.1	50 (≈ 99 µM)	25 (≈ 49.5 µM)	100 (≈ 198 µM)	25 (≈ 49.5 µM)	100 (≈ 198 µM)	25 (≈ 49.5 µM)	23.2	100 (≈ 198 µM)	50 (≈ 99 µM)	MBC (Staphylococcus aureus [1]): 100 µg/mL (≈ 198 µM); MBC (Streptococcus pyogenes [5]): 100 µg/mL (≈ 198 µM); MIC (Streptococcus pyogenes [5]): 50 µg/mL (≈ 99 µM); MBC (Klebsiella pneumoniae [6]): 100 µg/mL (≈ 198 µM); MIC (Klebsiella pneumoniae [6]): 50 µg/mL (≈ 99 µM)
CCCCCCCC/C=C\CCCCCCCC(=O)Nc1ccccc1O	100 (≈ 268 µM)	100 (≈ 268 µM)	100 (≈ 268 µM)	13.2	10.8	11.4	11.1	15.3	11.7	9.2	8.9	50 (≈ 134 µM)	50 (≈ 134 µM)	100 (≈ 268 µM)	25 (≈ 66.9 µM)	100 (≈ 268 µM)	50 (≈ 134 µM)	15.2	100 (≈ 268 µM)	100 (≈ 268 µM)	MBC (Staphylococcus aureus [1]): 100 µg/mL (≈ 268 µM); MBC (Streptococcus pyogenes [5]): 100 µg/mL (≈ 268 µM); MIC (Streptococcus pyogenes [5]): 50 µg/mL (≈ 134 µM); MFC (Talaromyces marneffei [15]): 100 µg/mL (≈ 268 µM); MIC (Talaromyces marneffei [15]): 50 µg/mL (≈ 134 µM)
